The NIST ThermoML archive (doi:10.1016/j.fluid.2008.03.004)

Assay: xn = mol fraction of the nth substance listed
Details: 101 kPa, Liquid; for speed of sound: Sing-around technique in a fixed-path interferometer

Cc1ccccc1C [1,2-dimethylbenzene] + COC(C)(C)C
Details	mass density [kg/m3]	speed of sound [m/s]
288.15 K, x2 = 0	883.36	1381.3
288.15 K, x2 = 0.052	876.722	1374.2
288.15 K, x2 = 0.101	870.811	1361.2
288.15 K, x2 = 0.203	857.652	1332.7
288.15 K, x2 = 0.303	844.603	1302.7
288.15 K, x2 = 0.401	831.766	1274.2
288.15 K, x2 = 0.499	818.201	1243.3
288.15 K, x2 = 0.604	803.537	1212.8
288.15 K, x2 = 0.707	788.841	1179
288.15 K, x2 = 0.8	775.294	1148.4
288.15 K, x2 = 0.9	760.339	1119.5
288.15 K, x2 = 0.95	752.593	1099.1
290.65 K, x2 = 0	881.265	1371.8
290.65 K, x2 = 0.052	874.606	1364.9
290.65 K, x2 = 0.101	868.675	1350.7
290.65 K, x2 = 0.203	855.478	1322.1
290.65 K, x2 = 0.303	842.386	1292
290.65 K, x2 = 0.401	829.505	1263.3
290.65 K, x2 = 0.499	815.897	1232.4
290.65 K, x2 = 0.604	801.177	1201.5
290.65 K, x2 = 0.707	786.421	1167.7
290.65 K, x2 = 0.8	772.825	1136.8
290.65 K, x2 = 0.9	757.801	1107.9
290.65 K, x2 = 0.95	750.025	1087.4
293.15 K, x2 = 0	879.168	1362.2
293.15 K, x2 = 0.052	872.486	1354.8
293.15 K, x2 = 0.101	866.535	1340.3
293.15 K, x2 = 0.203	853.3	1311.6
293.15 K, x2 = 0.303	840.168	1281.4
293.15 K, x2 = 0.401	827.242	1252.5
293.15 K, x2 = 0.499	813.586	1221.6
293.15 K, x2 = 0.604	798.814	1190.3
293.15 K, x2 = 0.707	783.998	1156.6
293.15 K, x2 = 0.8	770.35	1125.5
293.15 K, x2 = 0.9	755.264	1096.5
293.15 K, x2 = 0.95	747.451	1075.9
295.65 K, x2 = 0	877.069	1351.8
295.65 K, x2 = 0.052	870.364	1344.5
295.65 K, x2 = 0.101	864.394	1329.8
295.65 K, x2 = 0.203	851.12	1301.1
295.65 K, x2 = 0.303	837.944	1270.7
295.65 K, x2 = 0.401	824.973	1241.8
295.65 K, x2 = 0.499	811.273	1210.7
295.65 K, x2 = 0.604	796.444	1179.3
295.65 K, x2 = 0.707	781.567	1145.4
295.65 K, x2 = 0.8	767.869	1114.1
295.65 K, x2 = 0.9	752.717	1085.1
295.65 K, x2 = 0.95	744.871	1064.4
298.15 K, x2 = 0	874.968	1341.5
298.15 K, x2 = 0.052	868.242	1334.2
298.15 K, x2 = 0.101	862.253	1319.6
298.15 K, x2 = 0.203	848.937	1290.6
298.15 K, x2 = 0.303	835.714	1260.1
298.15 K, x2 = 0.401	822.702	1231.1
298.15 K, x2 = 0.499	808.953	1199.9
298.15 K, x2 = 0.604	794.069	1168.2
298.15 K, x2 = 0.707	779.131	1134.3
298.15 K, x2 = 0.8	765.379	1102.7
298.15 K, x2 = 0.9	750.16	1073.7
298.15 K, x2 = 0.95	742.284	1052.9
300.65 K, x2 = 0	872.865	1331.2
300.65 K, x2 = 0.052	866.116	1323.9
300.65 K, x2 = 0.101	860.108	1309.4
300.65 K, x2 = 0.203	846.749	1280.2
300.65 K, x2 = 0.303	833.484	1249.6
300.65 K, x2 = 0.401	820.426	1220.3
300.65 K, x2 = 0.499	806.626	1189.1
300.65 K, x2 = 0.604	791.685	1157.2
300.65 K, x2 = 0.707	776.688	1123.2
300.65 K, x2 = 0.8	762.882	1091.4
300.65 K, x2 = 0.9	747.591	1062.2
300.65 K, x2 = 0.95	739.686	1041.5
303.15 K, x2 = 0	870.759	1321
303.15 K, x2 = 0.052	863.985	1313.7
303.15 K, x2 = 0.101	857.959	1299.2
303.15 K, x2 = 0.203	844.558	1269.8
303.15 K, x2 = 0.303	831.25	1239.1
303.15 K, x2 = 0.401	818.144	1209.7
303.15 K, x2 = 0.499	804.296	1178.4
303.15 K, x2 = 0.604	789.298	1146.3
303.15 K, x2 = 0.707	774.237	1112.1
303.15 K, x2 = 0.8	760.378	1080.2
303.15 K, x2 = 0.9	745.002	1050.7
303.15 K, x2 = 0.95	737.076	1030
305.65 K, x2 = 0	868.65	1310.8
305.65 K, x2 = 0.052	861.853	1303.6
305.65 K, x2 = 0.101	855.807	1289
305.65 K, x2 = 0.203	842.365	1259.5
305.65 K, x2 = 0.303	829.01	1228.6
305.65 K, x2 = 0.401	815.857	1199
305.65 K, x2 = 0.499	801.959	1167.7
305.65 K, x2 = 0.604	786.901	1135.3
305.65 K, x2 = 0.707	771.779	1101
305.65 K, x2 = 0.8	757.862	1069
305.65 K, x2 = 0.9	742.391	1038.7
305.65 K, x2 = 0.95	734.452	1018.6
308.15 K, x2 = 0	866.538	1300.7
308.15 K, x2 = 0.052	859.718	1293.5
308.15 K, x2 = 0.101	853.654	1278.9
308.15 K, x2 = 0.203	840.166	1249.1
308.15 K, x2 = 0.303	826.764	1218.2
308.15 K, x2 = 0.401	813.564	1188.5
308.15 K, x2 = 0.499	799.615	1157
308.15 K, x2 = 0.604	784.495	1124.5
308.15 K, x2 = 0.707	769.312	1089.9
308.15 K, x2 = 0.8	755.336	1058
308.15 K, x2 = 0.9	739.788	1026.9
308.15 K, x2 = 0.95	731.817	1007.3
310.65 K, x2 = 0	864.422	1290.6
310.65 K, x2 = 0.052	857.577	1283.5
310.65 K, x2 = 0.101	851.495	1268.9
310.65 K, x2 = 0.203	837.963	1238.9
310.65 K, x2 = 0.303	824.515	1207.9
310.65 K, x2 = 0.401	811.267	1178
310.65 K, x2 = 0.499	797.264	1146.5
310.65 K, x2 = 0.604	782.083	1113.6
310.65 K, x2 = 0.707	766.837	1078.8
310.65 K, x2 = 0.8	752.799	1046.9
310.65 K, x2 = 0.9	737.174	1015.4
310.65 K, x2 = 0.95	729.169	996.05
313.15 K, x2 = 0	862.302	1280.6
313.15 K, x2 = 0.052	855.433	1273.4
313.15 K, x2 = 0.101	849.333	1258.9
313.15 K, x2 = 0.203	835.755	1228.7
313.15 K, x2 = 0.303	822.257	1197.6
313.15 K, x2 = 0.401	808.961	1167.5
313.15 K, x2 = 0.499	794.906	1135.9
313.15 K, x2 = 0.604	779.664	1102.8
313.15 K, x2 = 0.707	764.349	1067.7
313.15 K, x2 = 0.8	750.25	1035.9
313.15 K, x2 = 0.9	734.547	1003.8
313.15 K, x2 = 0.95	726.508	984.72
315.65 K, x2 = 0	860.179	1270.5
315.65 K, x2 = 0.052	853.286	1263.4
315.65 K, x2 = 0.101	847.168	1248.9
315.65 K, x2 = 0.203	833.542	1218.5
315.65 K, x2 = 0.303	819.996	1187.3
315.65 K, x2 = 0.401	806.651	1157.1
315.65 K, x2 = 0.499	792.544	1125.3
315.65 K, x2 = 0.604	777.236	1092
315.65 K, x2 = 0.707	761.858	1056.8
315.65 K, x2 = 0.8	747.693	1024.9
315.65 K, x2 = 0.9	731.912	992.02
315.65 K, x2 = 0.95	723.834	973.42
318.15 K, x2 = 0	858.054	1260.6
318.15 K, x2 = 0.052	851.136	1253.5
318.15 K, x2 = 0.101	845	1239
318.15 K, x2 = 0.203	831.325	1208.4
318.15 K, x2 = 0.303	817.731	1177.1
318.15 K, x2 = 0.401	804.337	1146.7
318.15 K, x2 = 0.499	790.173	1114.9
318.15 K, x2 = 0.604	774.802	1081.2
318.15 K, x2 = 0.707	759.355	1045.8
318.15 K, x2 = 0.8	745.123	1014
318.15 K, x2 = 0.9	729.271	980.41
318.15 K, x2 = 0.95	721.145	962.22
320.65 K, x2 = 0	855.927	1250.7
320.65 K, x2 = 0.052	848.981	1243.6
320.65 K, x2 = 0.101	842.834	1229.1
320.65 K, x2 = 0.203	829.108	1198.3
320.65 K, x2 = 0.303	815.461	1166.9
320.65 K, x2 = 0.401	802.016	1136.4
320.65 K, x2 = 0.499	787.797	1104.4
320.65 K, x2 = 0.604	772.358	1070.5
320.65 K, x2 = 0.707	756.834	1034.8
320.65 K, x2 = 0.8	742.544	1003.2
320.65 K, x2 = 0.9	726.621	968.31
320.65 K, x2 = 0.95	718.446	951.04
323.15 K, x2 = 0	853.803	1240.9
323.15 K, x2 = 0.052	846.833	1233.9
323.15 K, x2 = 0.101	840.678	1219.5
323.15 K, x2 = 0.203	826.892	1188.3
323.15 K, x2 = 0.303	813.194	1156.9
323.15 K, x2 = 0.401	799.699	1126.2
323.15 K, x2 = 0.499	785.421	1094.1
323.15 K, x2 = 0.604	769.917	1059.9
323.15 K, x2 = 0.707	754.356	1024.2
323.15 K, x2 = 0.8	739.964	992.41
323.15 K, x2 = 0.9	723.991	957.28
323.15 K, x2 = 0.95	715.742	940.07
